The values below come from US11925690B2, “Bifunctional molecules for targeting Rpn11” (AMPHISTA THERAPEUTICS LTD, priority 2018, dated 2024).

In data set [1] the target is T1, Brd4 (S) (Homo sapiens, UniProt O60885).
T1 construct: endogenous in cells; host or cells: HEK293 (CRL-1573), HeLa (CCL-2)
Nature of the data set: Concentration-dependent BET degradation, immunoblot. The class given is cell-based. The following applies: 4 h, 1 nM-10 μM. The method, then: (§1) Immunoblotting. Proteins were separated by SDS-PAGE on NuPage 4-12% Bis-Tris gels, followed by transfer to Amersham Protran 0.45 NC nitrocellulose membrane (GE Healthcare) using wet transfer. Membranes were blocked using 5% w/v milk in Tris-buffered saline (TBS) with 0.1% Tween-20. Blots were probed (overnight at 4 °C) using anti-Brd2 (Abcam ab139690, 1:2,000 dilution), anti-Brd3 (Abcam ab50818, 1:500 dilution), and anti-Brd4 (Abcam ab128874, 1:1,000 dilution) primary antibodies, as appropriate. The next day, blots were washed with TBST and incubated (1 h at Room temperature) with anti-Tubulin hFAB-rhodamine (BioRad, 12004166) primary antibody, and either anti-rabbit IRDye 800CW (Licor 1:1,000 dilution) or anti-mouse IRDye 800CW (Licor 1:1,000 dilution) secondary antibody. Blots were developed using a Bio-Rad ChemiDoc MP Imaging System, and band quantification was performed using Image Studio software (LiCor). Band intensities were normalized to the tubulin loading control and reported as % of the average 0.1% DMSO vehicle intensity. Degradation data was plotted and analysed using Prism (Graphpad, version 8).
(§2) HeLa (5×10^5) and HEK293 (1×10^6) cells were seeded in standard 6-well plates (2 mL medium) overnight before treatment with compounds at the desired concentration (1 nM-10 μM), with a final DMSO concentration of 0.1% v/v. After 4 h treatment time, cells were washed with DPBS (Gibco) and lysed using 85 μL RIPA buffer (Sigma-Aldrich) supplemented with cOmplete Mini EDTA-free protease inhibitor cocktail (Roche) and benzonase. Lysates were clarified by centrifugation (20000 g, 10 min, 4° C.) and the total protein content of the supernatant was quantified using a Bradford colorimetric assay. Samples were prepared using equal amounts of total protein and LDS sample buffer (Invitrogen). Band intensities were normalized to the tubulin loading control and reported as % of the average 0.1% DMSO vehicle intensity. Degradation data was plotted and analysed using Prism (Graphpad, version 8).
(§3) MZ1 and 11JQ17 were used at 1 μM for positive and negative controls, respectively. […] For the table, Dmax: +(Dmax≤25%); ++(26%≤Dmax≤50%); +++(51%≤Dmax≤70%); ++++(71%≤DC50: A (DC50≤50 nM); B (51 nM≤DC50≤500 nM); C (501 nM≤DC50).
(Immunoblotting shows a protein as a band on a membrane.)

The target of data set [2] is T2, Brd4 (L) (Homo sapiens, UniProt O60885).
T2 construct: endogenous in cells; host or cells: HEK293 (CRL-1573), HeLa (CCL-2)
The description is as above. The class given is cell-based. As to conditions: 4 h, 1 nM-10 μM. The method, then:
as §1, §2, §3

Data set [3] deals with T1, Brd4 (S). Description: Time-dependent BET degradation, immunoblot. Details: Dmax: dose or concentration left out as unconfirmed. In kind it is cell-based. As to conditions: HEK293, Brd4 (S). How it is done:
as §1
as §2, with “HEK293” for “HeLa (5×10^5) and HEK293”, “(0.5×10^6)” for “(1×10^6)”, “1 μM concentration,” for “the desired concentration (1 nM-10 μM),”, “incubation for the desired time (0-24 hrs),” for “4 h treatment time,”, “complete” for “cOmplete”
(§4) MZ1 and 11JQ17 were used at 1 μM (4 h) for positive and negative controls, respectively. […]

Data set [4] deals with T2, Brd4 (L). Nature of the data set: Time-dependent BET degradation, immunoblot. The class given is cell-based. Details: Dmax: dose or concentration left out as unconfirmed. The following applies: HEK293, Brd4 (L). How it is done:
as §1
as §2, with “HEK293” for “HeLa (5×10^5) and HEK293”, “(0.5×10^6)” for “(1×10^6)”, “1 μM concentration,” for “the desired concentration (1 nM-10 μM),”, “incubation for the desired time (0-24 hrs),” for “4 h treatment time,”, “complete” for “cOmplete”
as §4

The target in data set [5] is T3, Brd3 (Homo sapiens, UniProt Q15059). Description: Concentration-dependent BET degradation, immunoblot. The class given is cell-based. The following applies: 1 nM-10 μM. Details: endogenous in cells; host or cells: HEK293 (CRL-1573), HeLa (CCL-2). How it is done: as §1, §2, §3
The target of data set [6] is T4, Brd2 (Homo sapiens, UniProt P25440). The description is as above. In kind it is cell-based. Details: endogenous in cells; host or cells: HEK293 (CRL-1573), HeLa (CCL-2). The following applies: 1 nM-10 μM. How it is done: as §1, §2, §3
Data set [7] has as its target T3, Brd3. Description: Time-dependent BET degradation, immunoblot. In kind it is cell-based. The following applies: HEK293, Brd3, 1 μM. The method, then:
as §1
as §2, with “HEK293” for “HeLa (5×10^5) and HEK293”, “(0.5×10^6)” for “(1×10^6)”, “1 μM concentration,” for “the desired concentration (1 nM-10 μM),”, “incubation for the desired time (0-24 hrs),” for “4 h treatment time,”, “complete” for “cOmplete”
as §4

For data set [8], the target named is T4, Brd2. Description: Time-dependent BET degradation, immunoblot. The class given is cell-based. As to conditions: HEK293, Brd2, 1 μM. How it is done: as §1
as §2, with “HEK293” for “HeLa (5×10^5) and HEK293”, “(0.5×10^6)” for “(1×10^6)”, “1 μM concentration,” for “the desired concentration (1 nM-10 μM),”, “incubation for the desired time (0-24 hrs),” for “4 h treatment time,”, “complete” for “cOmplete”
as §4

In the next data set the target is T5, Brd4 (Homo sapiens, UniProt O60885).
T5 construct: immunoblot analysis of Brd4 following 4 h treatment of HEK293 cells; endogenous in cells; host or cells: HEK293 (CRL-1573)
Nature of the data set: Mechanistic evaluation: Brd4 degradation after inhibitor pre-treatment. In kind it is cell-based. As to conditions: HEK293, 1 μM degrader 4 h. The method, then:
HeLa (5×10^5) and HEK293 (1×10^6) cells were seeded in standard 6-well plates (2 mL medium) overnight before pre-treatment with inhibitors (10 μM bortezomib, 10 μM capzimin, 10 μM JQ1). After a 0.5 h pre-incubation time, cells were subsequently treated with vehicle, 1 μM MZ1 or 1 μM 11JQ15, yielding a final overall DMSO concentration of 0.2% v/v. After 4 h incubation, cells were washed with DPBS (Gibco) and lysed using 85 μL RIPA buffer (Sigma-Aldrich) supplemented with cOmplete Mini EDTA-free protease inhibitor cocktail (Roche) and benzonase. Lysates were clarified by centrifugation (20000 g, 10 min, 4° C.) and the total protein content of the supernatant was quantified using a Bradford colorimetric assay. Samples were prepared using equal amounts of total protein and LDS sample buffer (Invitrogen).
Brd4 band intensities were normalized to tubulin loading control and reported in FIG. 6B as % of the average 0.1% DMSO vehicle intensity. Each bar is mean±SEM of three independent experiments performed in duplicate (n=3).

In another data set the test system is human cancer cell lines. As to conditions: cited from earlier work.
The mark [9] stands for this setting: 1 μM, time to deplete 50% of the protein relative to DMSO.
Setting [10] is: 1 μM, time to reach 50% of the Dmax.
The mark [11] stands for this setting: time to deplete 50% of the protein relative to DMSO.

SMILES strings stand for the structures. Bounds are passed on as bounds.

T3 sequence (Q15059 whole entry): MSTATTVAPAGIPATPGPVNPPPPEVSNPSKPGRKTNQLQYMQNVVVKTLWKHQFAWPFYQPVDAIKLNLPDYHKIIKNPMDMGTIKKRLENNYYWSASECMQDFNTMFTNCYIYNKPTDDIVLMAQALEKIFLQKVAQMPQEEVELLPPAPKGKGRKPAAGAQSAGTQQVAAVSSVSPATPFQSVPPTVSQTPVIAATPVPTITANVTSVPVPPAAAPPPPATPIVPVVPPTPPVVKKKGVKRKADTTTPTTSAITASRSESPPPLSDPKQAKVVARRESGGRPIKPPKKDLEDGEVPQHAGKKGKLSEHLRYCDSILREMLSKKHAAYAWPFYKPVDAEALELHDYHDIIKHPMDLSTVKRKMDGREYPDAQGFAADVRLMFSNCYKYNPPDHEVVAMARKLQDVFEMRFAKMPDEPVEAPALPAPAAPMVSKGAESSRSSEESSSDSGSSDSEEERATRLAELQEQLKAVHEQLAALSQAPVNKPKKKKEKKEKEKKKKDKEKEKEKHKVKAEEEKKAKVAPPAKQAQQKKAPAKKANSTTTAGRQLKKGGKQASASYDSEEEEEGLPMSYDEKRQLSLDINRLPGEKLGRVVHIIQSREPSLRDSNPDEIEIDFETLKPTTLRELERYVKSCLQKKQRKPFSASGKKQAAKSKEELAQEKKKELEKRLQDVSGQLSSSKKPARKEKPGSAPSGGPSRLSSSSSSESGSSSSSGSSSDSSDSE
T4 sequence (P25440 whole entry): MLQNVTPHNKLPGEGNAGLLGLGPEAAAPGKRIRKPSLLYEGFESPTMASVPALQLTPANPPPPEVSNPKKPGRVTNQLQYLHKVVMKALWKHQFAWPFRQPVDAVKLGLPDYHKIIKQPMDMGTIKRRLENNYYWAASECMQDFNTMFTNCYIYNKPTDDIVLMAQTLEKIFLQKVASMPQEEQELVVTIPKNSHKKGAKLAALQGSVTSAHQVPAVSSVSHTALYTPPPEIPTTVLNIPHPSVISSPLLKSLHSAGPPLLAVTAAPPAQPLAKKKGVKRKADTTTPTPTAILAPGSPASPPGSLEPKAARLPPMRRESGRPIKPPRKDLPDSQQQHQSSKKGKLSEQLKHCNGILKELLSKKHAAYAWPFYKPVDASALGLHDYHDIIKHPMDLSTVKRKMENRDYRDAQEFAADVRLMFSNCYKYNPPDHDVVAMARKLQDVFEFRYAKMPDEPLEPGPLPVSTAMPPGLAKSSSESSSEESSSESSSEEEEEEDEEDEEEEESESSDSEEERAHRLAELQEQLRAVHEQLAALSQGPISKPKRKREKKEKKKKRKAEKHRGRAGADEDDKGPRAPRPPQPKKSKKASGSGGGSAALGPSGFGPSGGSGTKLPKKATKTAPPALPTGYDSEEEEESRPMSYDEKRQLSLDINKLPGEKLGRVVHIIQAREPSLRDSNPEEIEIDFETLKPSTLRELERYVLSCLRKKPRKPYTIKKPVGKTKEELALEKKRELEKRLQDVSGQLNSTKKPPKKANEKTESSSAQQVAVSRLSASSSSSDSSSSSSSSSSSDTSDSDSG

The DC50 is the midpoint of the concentration-degradation curve. For orientation: Dmax means the greatest extent of degradation seen. For `Cc1sc2c(c1C)C(c1ccc(Cl)cc1)=N[C@@H](CC(=O)NCCOCCNC(=O)c1cc(S)c3ncc(C(=O)NCCc4nccs4)cc3c1)c1nnc(C)n1-2` [Example 11JQ1], the DC50 on Brd4 (S) [1] (HEK293, Brd4 (S)) is 51 to 500 nM; at Brd4 (S) [1] (HeLa), 51 to 500 nM; at Brd4 (L) [2] (HEK293, Brd4 (L)) it was 51 to 500 nM; at Brd4 (L) [2] (HeLa), 51 to 500 nM; at Brd3 [5] (HEK293, Brd3, 4 h) it was no less than 501 nM; on Brd3 [5] (HeLa, Brd3, 4 h), no less than 501 nM. Moreover, the DC50 on Brd2 [6] (HEK293, Brd2, 4 h) is 51 to 500 nM; at Brd2 [6] (HeLa, Brd2, 4 h) it was 51 to 500 nM. For the same compound, the Dmax on Brd4 (S) [1] (HEK293, Brd4 (S)) was no less than 71%; on Brd4 (S) [1] (HeLa), no less than 71%; at Brd4 (L) [2] (HEK293, Brd4 (L)), no less than 71%; at Brd4 (L) [2] (HeLa), no less than 71%; on Brd4 (S) [3] (0-24 hrs), 95%; at Brd4 (L) [4] (0-24 hrs), 95%. Besides, the Dmax was 51 to 70% on Brd3 [5] (HEK293, Brd3, 4 h); 51 to 70% at Brd3 [5] (HeLa, Brd3, 4 h); no less than 71% at Brd2 [6] (HEK293, Brd2, 4 h); 26 to 50% at Brd2 [6] (HeLa, Brd2, 4 h). In addition, the “Abs. T1/2” value on Brd4 (S) [3] (setting [9]) was 1.9 h; at Brd4 (L) [4] (setting [9]), 1.7 h; on Brd3 [7] (setting [11]), 3.5 h; at Brd2 [8] (setting [11]), 3.5 h. The “T1/2” value at Brd4 (S) [3] (setting [10]) stood at 2 h; at Brd4 (L) [4] (setting [10]), 1.6 h; at Brd3 [7] (time to reach 50% of the Dmax), 2.7 h; at Brd2 [8] (time to reach 50% of the Dmax), 1.0 h. The Dmax at 1 µM was 90% at Brd3 [7] (0-24 hrs) and 60% on Brd2 [8] (0-24 hrs).
As to `Cc1sc2c(c1C)C(c1ccc(Cl)cc1)=N[C@@H](CC(=O)NCCCCNC(=O)c1cc(S)c3ncc(C(=O)NCc4ccc(F)cc4)cc3c1)c1nnc(C)n1-2` [Example 11JQ12], the DC50 on Brd4 (S) [1] (HEK293, Brd4 (S)) is 51 to 500 nM; on Brd4 (S) [1] (HeLa) it was no less than 501 nM; on Brd4 (L) [2] (HEK293, Brd4 (L)), 51 to 500 nM; at Brd4 (L) [2] (HeLa), no less than 501 nM; at Brd3 [5] (HEK293, Brd3, 4 h), no less than 501 nM; on Brd3 [5] (HeLa, Brd3, 4 h), no less than 501 nM. Moreover, the 50% degradation concentration (DC50) was no less than 501 nM on Brd2 [6] (HEK293, Brd2, 4 h) and no less than 501 nM at Brd2 [6] (HeLa, Brd2, 4 h). In addition, the Dmax was no less than 71% on Brd4 (S) [1] (HEK293, Brd4 (S)); no less than 71% on Brd4 (S) [1] (HeLa); no less than 71% at Brd4 (L) [2] (HEK293, Brd4 (L)); no less than 71% on Brd4 (L) [2] (HeLa); 26 to 50% on Brd3 [5] (HEK293, Brd3, 4 h); no more than 25% at Brd3 [5] (HeLa, Brd3, 4 h). Further, the Dmax is 26 to 50% at Brd2 [6] (HEK293, Brd2, 4 h) and 26 to 50% at Brd2 [6] (HeLa, Brd2, 4 h).
Consider `Cc1ncsc1-c1ccc(CNC(=O)[C@@H]2C[C@@H](O)CN2C(=O)[C@@H](NC(=O)COCCOCCOCCNC(=O)C[C@@H]2N=C(c3ccc(Cl)cc3)c3c(sc(C)c3C)-n3c(C)nnc32)C(C)(C)C)cc1` [MZ1, reference compound], for which the “Brd4 degradation in the presence of JQ1” value at Brd4 (10 μM JQ1 pre-treatment 0.5 h) was “blocked”. The “Brd4 degradation in the presence of bortezomib” value on Brd4 (10 μM bortezomib pre-treatment 0.5 h) is recorded as “blocked”. For the same compound, the “Brd4 degradation in the presence of capzimin” value at Brd4 (10 μM capzimin pre-treatment 0.5 h) is “only blocked by bortezomib and JQ1”.
Take `Cn1c(COP(=O)(NCCBr)NCCBr)cnc1[N+](=O)[O-]` [TH-302, (1-methyl-2-nitro-1H-imidazole5-yl) N, N0-bis (2-bromoethyl) diamidophosphate]: the cytotoxic potency result in the data set on human cancer cell lines (hypoxic conditions) is “greatly enhanced cytotoxic potency”. In the data set with human cancer cell lines (normoxic conditions), the cytotoxic activity result is reported as “little cytotoxic activity”.
